We go through 13 compounds from patent US20040006236A1, “Diaminopropionic acid derivatives” (priority 1999, published 2004).

Molecules are shown by their SMILES. Like-named read-outs stand apart in the source and are kept apart here.

Test [1] relates to cell-surface Mac-1 adhesion to immobilized fibrinogen (HL-60 cells). Put plainly: Mac-1/Fibrinogen cell-based screening assay. Details: species or system human. The note with it: Homo sapiens, HL-60, HL-60 cells; read-out: Mac-1/Fgn Cell based Assay IC50. The method, then:
Cellular Mac-1/Fibrinogen antagonist activity, defined as the ability to inhibit cell-surface Mac-1 adhesion to immobilized fibrinogen, was quantitated by a cell based assay. Human fibrinogen was coated onto 96 well microtiter plates (1 μg in 100 μL TBS) overnight at 4° C. The plates were then blocked with 150 μL of 10% polyvinyl pyrrolidone (PVP) in TBS for 1 h at 37° C. Plates were washed 3 times (150 μL each) with TBS. […] A ten-fold excess of volume of the same buffer was added and cells were centrifuged. The medium was decanted and cells were resuspended at a concentration of 2×10^6 cells/mL in RPMI/0.05% BSA/0.2 mM MnCl2. Stock solutions (10 mM in DMSO) of test compounds were diluted to 2.5 mM with DMSO. […] Each sample was further diluted 50-fold with RPMI/0.05% BSA/0.2 mM MnCl2. Equal volumes of labeled cells were then added to assay tubes containing diluted compounds. […] Cells were incubated for 10 min at 37° C. with gentle shaking, then dispensed (100 μL per well) onto fibrinogen coated plates and incubated for 30 min at 37° C./5% CO2. Unbound cells were gently washed with TBS two times.

The target in test [2] is T1, LFA-1 binding to immobilized ICAM-1 (Homo sapiens, UniProt P05107+P20701).
T1 construct: made in house; host or cells: transfected 293 cells (LFA-1)
The experiment in a line: LFA-1/ICAM-1 protein-protein assay (solid-phase ELISA). How it is done:
(a) LFA-1/ICAM-1 screening test: LFA-1/ICAM-1 antagonist activity, defined as the ability of compounds of the invention to block LFA-1 binding to immobilized ICAM-1, was quantitated using a solid-phase ELISA.
(§1) Typically, fusion protein consisting of the entire extracellular domain of human ICAM-1 and the Fc domain of human IgG (5dICAM-Ig) was coated onto 96-well microtiter plates (0.15 μg in 100 μL PBS) overnight at 4° C. The plates were then blocked with 150 μL of 1% BSA/1 mM MnCl2/0.14 M NaCl/20 mM HEPES, pH 7.2 for 1 h at 37° C. and washed 3 times (150 μL each) with Wash Buffer (50 mM Tris, pH 7.4/100 mM NaCl/1 mM MnCl2/0.05% Tween 20). Stock solutions (100 μM in 100% DMSO) of test compounds were diluted 50 fold with 150 μL of Binding Buffer (0.05% BSA/0.05% Tween 20/1 mM MnCl2/0.14 M NaCl/20 mM HEPES, pH 7.2) plus 10% DMSO. […] Fifty μL per well of each dilution was added to the ICAM-1 coated plates, followed by 50 μL per well of membrane-bound LFA-1 (280 ng/mL in Binding Buffer) derived from transfected 293 cells. The plates were shaken vigorously for 1 min (room temperature) and gently for 2 h (37° C.). After incubation, the plates were washed 3 times (150 μL each) with Wash Buffer. Mouse anti-human integrin β2 monoclonal antibody was added (100 μL/well, 1 μg/mL in Binding Buffer) and allowed to incubate for 1 h (37° C.) with gentle agitation. The plates were then washed 3 times with Wash Buffer. HRP-conjugated goat anti-mouse IgG (100 μL/well, 1:1500 dilution in Binding Buffer) was added to each well, followed by incubation for 1 h (37° C.), and concluded by three washes (150 μL each) with Wash Buffer. TMB solution (100 μL per well) was added for color development (10 min). The reaction was stopped by the addition of 100 μL of 1 M H3PO4 to each well. The plates were then read at 450 nm. The inhibitory activities of test compounds were determined by the IC50s.
as §1, with “LFA-1/ICAM-1 antagonist activity, defined as the ability to block LFA-1 binding to immobilized ICAM-1, was quantitated using a solid-phase ELISA. Typically,” for “Typically,”, “(0.05 %” for “(0.05%”, “nm.” for “nm. The inhibitory activities of test compounds were determined by the IC50s.”

The target in test [3] is T2, ICAM-1 binding to immobilized Mac-1 (Homo sapiens, UniProt P05107+P11215).
T2 construct: made in house; host or cells: transfected 293 cells (Mac-1)
Put plainly: Mac-1/ICAM-1 screening assay (solid-phase ELISA). How it is done: (b) Mac-1/ICAM-1 screening test: Mac-1/ICAM-1 antagonist activity, defined as the ability to compete with ICAM-1 binding to immobilized Mac-1, was quantitated by a solid-phase ELISA.
(§2) Membrane-bound Mac-1 derived from transfected 293 cells was coated onto 96-well microtiter plates (50 μL/well, 3 μg/mL Mac-1 in 20 mM Hepes, pH 7.2/0.14 M NaCl/1 mM MnCl2) overnight at 4° C. The plates were blocked with 100 μL/well of 0.5% BSA in 20 mM Hepes, pH 7.2/0.14 M NaCl/1 mM MnCl2 at 37° C. for 1 h and washed 3 times (120 μL each) with Binding Buffer (20 mM Hepes, pH 7.2/0.14 M NaCl/1 mM MnCl2/0.05% Tween 20). Test compounds were dissolved in 100% DMSO and diluted 1:50 in Binding Buffer plus 10% DMSO. A series of 1:4 dilutions were performed for each compound (concentration range, 0.12 nM-20 μM). Each dilution (25 μL/well) was added to the plates, followed by 25 μL/well of 5 dICAM-Ig (40 μg/mL in Binding Buffer). The plates were shaken vigorously for 1 min (room temperature), followed by gentle agitation for 2 h (37° C.), and washed with Binding Buffer (3 times, 120 μL each). HRP-conjugated goat anti-human IgG(Fc-specific) antibody (0.125 μg/mL in Binding Buffer plus 0.05% BSA) was added to each well (50 μL/well), followed by incubation for 1 h at 37° C. The plates were then washed 3 times with Binding Buffer (120 μL each). TMB solution (100 μL/well) was added to each well for color development for 10 min. The reaction was stopped with 1 M H3PO4 (100 μL/well) and the plates were read at 450 nm. The inhibitory activities of test compounds were determined by the IC50s.
as §2, with “Mac-1/ICAM-1 antagonist activity, defined as the ability to compete with ICAM-1 binding to immobilized Mac-1, was quantitated by a solid-phase ELISA. Membrane-bound” for “Membrane-bound”, “5dICAM-Ig” for “5 dICAM-Ig”, “nm.” for “nm. The inhibitory activities of test compounds were determined by the IC50s.”

The mark [4] stands for this setting: read-out: LFA-1/ICAM-1 Protein-Protein Assay IC50.
[5] abbreviates: read-out: Mac-1/ICAM-1 Protein-Protein Assay IC50.

T1 sequence (P20701 26-1170): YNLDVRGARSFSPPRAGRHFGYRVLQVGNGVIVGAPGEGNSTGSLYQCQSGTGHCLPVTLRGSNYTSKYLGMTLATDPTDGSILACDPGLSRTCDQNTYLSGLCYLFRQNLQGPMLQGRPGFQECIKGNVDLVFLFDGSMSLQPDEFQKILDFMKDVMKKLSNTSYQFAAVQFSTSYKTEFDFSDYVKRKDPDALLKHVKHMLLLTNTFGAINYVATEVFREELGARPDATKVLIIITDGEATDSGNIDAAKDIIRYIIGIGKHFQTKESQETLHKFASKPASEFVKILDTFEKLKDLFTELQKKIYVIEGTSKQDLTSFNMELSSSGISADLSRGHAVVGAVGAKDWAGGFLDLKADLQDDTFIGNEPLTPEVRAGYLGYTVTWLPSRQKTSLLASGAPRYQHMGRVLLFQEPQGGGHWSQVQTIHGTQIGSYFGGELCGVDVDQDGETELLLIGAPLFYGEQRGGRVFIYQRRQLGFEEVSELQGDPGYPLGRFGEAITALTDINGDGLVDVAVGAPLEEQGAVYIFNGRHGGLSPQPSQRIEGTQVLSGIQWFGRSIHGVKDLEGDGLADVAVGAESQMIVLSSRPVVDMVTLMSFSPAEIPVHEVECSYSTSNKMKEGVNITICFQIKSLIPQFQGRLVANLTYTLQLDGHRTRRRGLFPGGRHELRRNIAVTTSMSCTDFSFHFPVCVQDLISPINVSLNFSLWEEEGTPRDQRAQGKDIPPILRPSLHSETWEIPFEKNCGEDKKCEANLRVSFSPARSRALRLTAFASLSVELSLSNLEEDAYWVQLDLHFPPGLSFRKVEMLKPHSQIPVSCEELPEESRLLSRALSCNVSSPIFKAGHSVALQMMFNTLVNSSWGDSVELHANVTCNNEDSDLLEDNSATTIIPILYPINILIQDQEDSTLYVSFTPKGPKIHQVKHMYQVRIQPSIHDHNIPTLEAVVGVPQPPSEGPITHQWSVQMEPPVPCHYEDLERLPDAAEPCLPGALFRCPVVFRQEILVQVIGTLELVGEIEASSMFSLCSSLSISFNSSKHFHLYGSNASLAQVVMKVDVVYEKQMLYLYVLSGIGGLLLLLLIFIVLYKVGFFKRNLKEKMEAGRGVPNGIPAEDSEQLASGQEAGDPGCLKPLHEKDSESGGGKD
T1 sequence (P05107 23-769): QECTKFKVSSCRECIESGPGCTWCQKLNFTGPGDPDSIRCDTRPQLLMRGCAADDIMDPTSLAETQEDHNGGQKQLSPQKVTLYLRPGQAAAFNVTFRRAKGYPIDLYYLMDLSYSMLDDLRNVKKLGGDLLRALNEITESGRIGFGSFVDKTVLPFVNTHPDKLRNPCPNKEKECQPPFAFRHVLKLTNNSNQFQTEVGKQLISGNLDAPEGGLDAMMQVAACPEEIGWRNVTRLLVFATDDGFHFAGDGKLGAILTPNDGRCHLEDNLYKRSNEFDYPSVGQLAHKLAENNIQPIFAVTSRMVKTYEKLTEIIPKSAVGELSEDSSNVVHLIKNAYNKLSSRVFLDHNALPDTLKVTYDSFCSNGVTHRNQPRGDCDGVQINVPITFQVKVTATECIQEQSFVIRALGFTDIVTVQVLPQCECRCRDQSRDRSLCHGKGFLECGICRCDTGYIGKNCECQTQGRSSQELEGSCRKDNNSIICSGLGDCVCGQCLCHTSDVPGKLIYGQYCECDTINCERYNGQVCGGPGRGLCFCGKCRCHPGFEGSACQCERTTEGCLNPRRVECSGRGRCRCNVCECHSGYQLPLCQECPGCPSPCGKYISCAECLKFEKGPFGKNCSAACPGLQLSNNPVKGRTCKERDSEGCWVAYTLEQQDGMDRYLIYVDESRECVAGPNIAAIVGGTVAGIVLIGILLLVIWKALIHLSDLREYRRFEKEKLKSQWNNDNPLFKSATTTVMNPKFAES
T2 sequence (P05107 23-769, other chains not shown): as the sequence (P05107 23-769) above

Consider `O=C(NCc1cccc(O)c1)c1ccc(C(=O)N[C@@H](CNC(=O)c2cc([N+](=O)[O-])[nH]n2)C(=O)O)c(Cl)c1` [Example 152], for which the IC50 in test [1] is 1220 nM. Take `O=C(COc1ccccc1)c1ccc(C(=O)N[C@@H](CNC(=O)c2cccs2)C(=O)O)c(Cl)c1` [Example 376, N-[2-chloro-4-(phenoxyacetyl)benzoyl]-3-(thiophene-2-carbonyl)amino-L-alanine]: the IC50 in test [2] (setting [4]) was 37 nM; in test [3] (setting [5]), 152 nM. For the compound `O=C(NCc1cccc(O)c1)c1ccc(C(=O)N[C@@H](CNC(=O)c2ccccn2)C(=O)O)c(Cl)c1` [Example 162], the IC50 in test [2] (setting [4]) came to 1 nM; in test [3] (setting [5]), 105 nM.

On to `O=C(CCc1cccc(O)c1)c1ccc(C(=O)N[C@@H](CNC(=O)c2cccs2)C(=O)O)c(Cl)c1` [Compound H, N-[2-chloro-4-[1-oxo-3-(3-hydroxyphenyl)propyl]benzoyl]-3-(thiophene-2-carbonyl)amino-L-alanine], for which the values for the IC50 in test [2] (read-out: LFA-1/ICAM IC50) and in test [3] (read-out: Mac-1/ICAM IC50) were 1.4 nM and 43.4 nM, respectively. The matching figures for `COc1cc(C(=O)NC[C@H](NC(=O)c2ccc(C(=O)NCc3cccc(O)c3)cc2Cl)C(=O)O)nc2ccccc12` [Compound E, N-[2-chloro-4-[[[(3-hydroxyphenyl)methyl]amino]carbonyl]benzoyl]-3-(4-methoxyquinoline-2-carbonyl)amino-L-alanine]: 15.2 nM and 521 nM.

With `COc1ccc2nc3ccc(C(=O)NC[C@H](NC(=O)c4ccc(C(=O)NCc5cccc(O)c5)cc4Cl)C(=O)O)cn3c(=O)c2c1` [Example 191], the values for the IC50 in test [2] (setting [4]) and in test [3] (setting [5]) were 2.2 nM and 130 nM, respectively. For `O=C(NC[C@H](NC(=O)c1ccc(-n2nnnc2NCc2cccc(O)c2)cc1Cl)C(=O)O)c1cccs1` [Compound I, N-[2-chloro-4-[5-[[(3-hydroxyphenyl)methyl]amino]tetrazol-1-yl]benzoyl]-3-(thiophene-2-carbonyl)amino-L-alanine], the IC50 in test [2] (read-out: LFA-1/ICAM IC50) was found to be 2.6 nM; in test [3] (read-out: Mac-1/ICAM IC50), 75.5 nM. In the same order, the values of `O=C(NCc1cccc2[nH]ccc12)c1ccc(C(=O)N[C@@H](CNC(=O)c2cccs2)C(=O)O)c(Cl)c1` [Compound G, N-[2-chloro-4-[[(1H-indol-4-ylmethyl)amino]carbonyl]benzoyl]-3-(thiophene-2-carbonyl)amino-L-alanine] are 1.3 nM and 22.4 nM. As for `O=C(NCc1cccc(O)c1)c1ccc(C(=O)N[C@@H](CNC(=O)c2ccc3ccccc3n2)C(=O)O)c(Cl)c1` [Example 181], the IC50 in test [2] (setting [4]) is 12 nM; in test [3] (setting [5]) it was 176 nM. The matching figures for `O=C(NCc1cccc(O)c1)c1ccc(C(=O)N[C@@H](CNC(=O)c2nccc3ccccc23)C(=O)O)c(Cl)c1` [Example 180]: 0.6 nM and 48 nM. In the same order, the values of `O=C(NCc1cccc(O)c1)c1ccc(C(=O)N[C@@H](CNC(=O)c2ccnc3ccccc23)C(=O)O)c(Cl)c1` [Example 184] are 2.5 nM and 91 nM.

`O=C(NCc1cccc(O)c1)c1ccc(C(=O)N[C@@H](CNC(=O)c2cnnc3ccccc23)C(=O)O)c(Cl)c1` [Example 185]: the IC50 in test [2] (setting [4]) is 1.3 nM; in test [3] (setting [5]), 187 nM. As for `O=C(NC[C@H](NC(=O)c1c(Cl)cccc1Cl)C(=O)O)c1ccc(Br)s1` [Compound F, 3-(5-bromothiophene-2-carbonyl)amino-N-(2,6-dichlorobenzoyl)-L-alanine], the IC50 was 6.4 nM in test [2] (read-out: LFA-1/ICAM IC50) and 81.7 nM in test [3] (read-out: Mac-1/ICAM IC50).
